Source: ChEMBL document CHEMBL1681696, “Discovery of benzimidazole pyrrolidinyl amides as prolylcarboxypeptidase inhibitors” (Bioorg Med Chem Lett, 2011)
Calls of active or inactive are those of the source. The rule behind the calls is not given here.

How the values were obtained:
[1] = molecular target: T1, Lysosomal Pro-X carboxypeptidase (Homo sapiens) (UniProt P42785); assay: Inhibition of human PrCP at 5 uM
T1 sequence (whole entry): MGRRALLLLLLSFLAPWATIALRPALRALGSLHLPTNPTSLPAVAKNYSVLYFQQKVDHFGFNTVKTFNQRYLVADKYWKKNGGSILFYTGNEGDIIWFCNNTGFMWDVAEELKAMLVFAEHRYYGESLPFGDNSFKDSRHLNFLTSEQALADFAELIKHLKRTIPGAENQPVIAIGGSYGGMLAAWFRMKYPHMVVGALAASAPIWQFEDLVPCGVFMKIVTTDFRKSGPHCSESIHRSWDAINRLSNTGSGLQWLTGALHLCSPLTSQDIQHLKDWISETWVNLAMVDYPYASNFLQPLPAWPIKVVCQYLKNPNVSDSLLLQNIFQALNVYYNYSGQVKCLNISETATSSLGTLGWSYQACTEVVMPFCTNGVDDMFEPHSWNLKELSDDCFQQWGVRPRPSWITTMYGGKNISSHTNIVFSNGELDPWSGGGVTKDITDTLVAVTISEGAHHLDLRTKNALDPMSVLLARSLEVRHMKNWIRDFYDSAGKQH

[2] = molecular target: T2, Lysosomal Pro-X carboxypeptidase (Mus musculus, UniProt Q7TMR0); assay: Inhibition of mouse PrCP
T2 sequence (Q7TMR0 whole entry): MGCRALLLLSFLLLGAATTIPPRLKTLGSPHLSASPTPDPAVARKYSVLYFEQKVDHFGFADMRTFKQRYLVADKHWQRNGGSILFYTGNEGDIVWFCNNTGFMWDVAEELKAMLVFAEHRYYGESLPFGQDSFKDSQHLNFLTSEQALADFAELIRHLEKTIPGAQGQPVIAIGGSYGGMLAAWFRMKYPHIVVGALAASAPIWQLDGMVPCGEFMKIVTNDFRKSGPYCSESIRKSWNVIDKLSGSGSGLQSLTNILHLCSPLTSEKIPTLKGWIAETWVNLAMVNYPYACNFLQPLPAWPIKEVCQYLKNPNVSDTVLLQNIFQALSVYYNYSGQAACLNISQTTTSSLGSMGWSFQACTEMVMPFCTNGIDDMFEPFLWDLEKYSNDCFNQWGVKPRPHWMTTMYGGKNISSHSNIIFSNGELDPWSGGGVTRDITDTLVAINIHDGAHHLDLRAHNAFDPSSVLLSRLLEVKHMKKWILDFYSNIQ

[3] = molecular target: T2, Lysosomal Pro-X carboxypeptidase; assay: Inhibition of PrCP in mouse plasma assessed as angiotensin 3 cleavage; format: cell-free
[4] = Drug level in wild type CF1 mouse brain at 0.5 mg/kg after 0.5 hrs; format: ADME, organism-based; design: dose 0.5 mg/kg; conditions: read-out: Drug uptake
[5] = Drug level in wild type CF1 mouse plasma at 0.5 mg/kg after 0.5 hrs; format: ADME, organism-based; design: dose 0.5 mg/kg; conditions: read-out: Drug uptake
[6] = Ratio of drug level in brain to plasma in wild type CF1 mouse at 0.5 mg/kg after 0.5 hrs; format: ADME, organism-based; design: dose 0.5 mg/kg; conditions: read-out: BPR
[7] = Drug level in wild type CF1 mouse brain at 0.5 mg/kg after 4 hrs; format: ADME, organism-based; design: dose 0.5 mg/kg; conditions: read-out: Drug uptake
[8] = Drug level in wild type CF1 mouse plasma at 0.5 mg/kg after 4 hrs; format: ADME, organism-based; design: dose 0.5 mg/kg; conditions: read-out: Drug uptake
[9] = Ratio of drug level in brain to plasma in wild type CF1 mouse at 0.5 mg/kg after 4 hrs; format: ADME, organism-based; design: dose 0.5 mg/kg; conditions: read-out: BPR
[10] = Drug level in mdr1a deficient mouse brain at 0.5 mg/kg after 0.5 hrs; format: ADME, organism-based; design: dose 0.5 mg/kg; conditions: read-out: Drug uptake
[11] = Drug level in mdr1a deficient mouse plasma at 0.5 mg/kg after 0.5 hrs; format: ADME, organism-based; design: dose 0.5 mg/kg; conditions: read-out: Drug uptake
[12] = Ratio of drug level in brain to plasma in mdr1a deficient mouse at 0.5 mg/kg after 0.5 hrs; format: ADME, organism-based; design: dose 0.5 mg/kg; conditions: read-out: BPR
[13] = Drug level in mdr1a deficient mouse brain at 0.5 mg/kg after 4 hrs; format: ADME, organism-based; design: dose 0.5 mg/kg; conditions: read-out: Drug uptake
[14] = Drug level in mdr1a deficient mouse plasma at 0.5 mg/kg after 4 hrs; format: ADME, organism-based; design: dose 0.5 mg/kg; conditions: read-out: Drug uptake
[15] = Ratio of drug level in brain to plasma in mdr1a deficient mouse at 0.5 mg/kg after 4 hrs; format: ADME, organism-based; design: dose 0.5 mg/kg; conditions: read-out: BPR
[16] = test system: Mus musculus; assay: Inhibition of ex vivo PrCP engagement in eDIO mouse plasma at 60 mg/kg, sc by continuous infusion pump for 7 days; format: functional; conditions: 168 h, route subcutaneous
[17] = test system: Mus musculus; assay: Antiobesity activity in PrCP knockout mouse assessed as reduction of food intake at 12 mg/kg sc by continuous infusion pump qd for 7 days; format: functional, organism-based; design: dose 12 mg/kg
[18] = test system: Mus musculus; assay: Inhibition of ex vivo PrCP engagement in eDIO mouse plasma at 60 mg/kg, sc by continuous infusion pump for 7 days additionally treated 2 uM of compound; format: functional; conditions: 168 h, route subcutaneous
[19] = Plasma concentration in eDIO mouse at 10 to 60 mg/kg, sc by continuous infusion pump for 7 days; format: ADME, organism-based; design: dose 10-60 mg/kg, route subcutaneous
[20] = test system: Mus musculus; assay: Antiobesity activity in eDIO mouse assessed as reduction of food intake at 12 mg/kg sc by continuous infusion pump qd for 7 days; format: functional, organism-based; design: dose 12 mg/kg
[21] = test system: Mus musculus; assay: Antiobesity activity in eDIO mouse assessed as reduction of body weight at 12 mg/kg sc by continuous infusion pump qd for 7 days; format: functional, organism-based; design: dose 12 mg/kg
[22] = test system: Mus musculus; assay: Antiobesity activity in PrCP knockout mouse assessed as reduction of body weight at 12 mg/kg sc by continuous infusion pump qd for 7 days; format: functional, organism-based; design: dose 12 mg/kg
[23] = Plasma concentration in eDIO mouse at 12 mg/kg sc by continuous infusion pump qd for 7 days; format: ADME, organism-based; design: dose 12 mg/kg, route subcutaneous
[24] = Plasma concentration in PrCP knockout mouse at 12 mg/kg sc by continuous infusion pump qd for 7 days; format: ADME, organism-based; design: dose 12 mg/kg, route subcutaneous
[25] = Oral bioavailability in mouse at 2 mg/kg; format: ADME, organism-based; conditions: in vivo
[26] = Clearance in mouse at 1 mg/kg, iv and 2 mg/kg, po; format: ADME, organism-based; conditions: in vivo
[27] = Volume of distribution at steady state in mouse at 1 mg/kg, iv and 2 mg/kg, po; format: ADME, organism-based; conditions: in vivo, read-out: Vdss
[28] = Half life in mouse at 1 mg/kg, iv and 2 mg/kg, po; format: ADME, organism-based; conditions: in vivo
[29] = species on record: Mus musculus; conditions: Plasma, 10 mg/kg
Description: Inhibition of ex vivo PrCP engagement in eDIO mouse plasma at 10 mg/kg, sc by continuous infusion pump for 7 days

[30] = species on record: Mus musculus; conditions: Plasma, 30 mg/kg
Description: Inhibition of ex vivo PrCP engagement in eDIO mouse plasma at 30 mg/kg, sc by continuous infusion pump for 7 days

O=C(CCN1CCC(c2ccccc2)C1)N1CCC[C@H]1c1nc2cc(Cl)c(Cl)cc2[nH]1 (stereo partly drawn)
inhibition [1]: 93%

O=C(CCN1CCC(c2nc(-c3ccccn3)no2)CC1)N1CCC[C@H]1c1nc2cc(Cl)c(Cl)cc2[nH]1
IC50 [2]: 3.5 nM | IC50 [3]: 173 nM

O=C(CCN1CCC(c2nc(-c3cccnc3)no2)CC1)N1CCC[C@H]1c1nc2cc(Cl)c(Cl)cc2[nH]1
IC50 [3]: 155 nM

O=C(CCN1CCC(c2ccncc2)CC1)N1CCC[C@H]1c1nc2cc(Cl)c(Cl)cc2[nH]1
IC50 [3]: 430 nM

Cn1nc(C2CCN(CCC(=O)N3CCC[C@H]3c3nc4cc(Cl)c(Cl)cc4[nH]3)CC2)cc1-c1ccncc1
IC50 [2]: 0.8 nM | IC50 [3]: 6.7 nM | concentration at 0.5 h [4]: 10 nM | concentration at 0.5 h [5]: 54 nM | Kp at 0.5 h [6]: 0.2 | concentration at 4 h [7]: 4 nM | concentration at 4 h [8]: 4.6 nM | Kp at 4 h [9]: 0.88 | concentration at 0.5 h [10]: 70 nM | concentration at 0.5 h [11]: 51 nM | Kp at 0.5 h [12]: 1.4 | concentration at 4 h [13]: 54 nM | concentration at 4 h [14]: 4 nM | Kp at 4 h [15]: 13 | inhibition in vivo at 60 mg/kg [16]: 55% | Activity [17]: Active | inhibition in vivo at 60 mg/kg [18]: 80% | concentration at 168 h [19]: 90 nM | Activity [20]: Active | Activity [21]: Active | Activity [22]: Active | concentration at 168 h [23]: 210 nM | concentration at 168 h [24]: 290 nM | bioavailability [25]: 4% | clearance [26]: 65 mL/min/kg | Vd [27]: 9.4 L/kg | half-life [28]: 246 min | inhibition [29]: Active | inhibition [30]: Active

Cn1nc(C2CCN(CCC(=O)N3CCC[C@H]3c3nc4cc(Cl)c(Cl)cc4[nH]3)CC2)cc1-c1cccnc1
IC50 [3]: 39 nM

O=C(CCN1CCC(n2ncnn2)CC1)N1CCC[C@H]1c1nc2cc(Cl)c(Cl)cc2[nH]1
IC50 [3]: 2900 nM

O=C(CCN1CCN(c2ccccc2)CC1)N1CCC[C@H]1c1nc2cc(Cl)c(Cl)cc2[nH]1
IC50 [3]: > 10000 nM

O=C(O)c1ccc(-c2noc(C3CCN(CCC(=O)N4CCC[C@H]4c4nc5cc(Cl)c(Cl)cc5[nH]4)CC3)n2)cc1
IC50 [3]: 241 nM

O=C(CCN1CCC(c2cn[nH]c2)CC1)N1CCC[C@H]1c1nc2cc(Cl)c(Cl)cc2[nH]1
IC50 [2]: 107 nM

O=C(CCN1CCC(c2nc(-c3ccncc3)no2)CC1)N1CCC[C@H]1c1nc2cc(Cl)c(Cl)cc2[nH]1
IC50 [2]: 0.53 nM | IC50 [3]: 29 nM | bioavailability [25]: 8% | clearance [26]: 38 mL/min/kg | Vd [27]: 5.7 L/kg | half-life [28]: 294 min

O=C(CCN1CCC(c2ccccc2)CC1)N1CCC[C@H]1c1nc2cc(Cl)c(Cl)cc2[nH]1
IC50 [3]: > 10000 nM

O=C(CCN1CCC(c2cc(-c3ccncc3)[nH]n2)CC1)N1CCC[C@H]1c1nc2cc(Cl)c(Cl)cc2[nH]1
IC50 [3]: 485 nM

CS(=O)(=O)c1ccc(-c2noc(C3CCN(CCC(=O)N4CCC[C@H]4c4nc5cc(Cl)c(Cl)cc5[nH]4)CC3)n2)cc1
IC50 [2]: 0.41 nM | IC50 [3]: 10 nM | bioavailability [25]: 14% | clearance [26]: 54 mL/min/kg | Vd [27]: 7.7 L/kg | half-life [28]: 132 min

CS(=O)(=O)c1ccc(-c2noc(C3CCN(CCC(=O)N4CCC[C@H]4c4nc5cc(Cl)c(Cl)cc5[nH]4)C(=O)C3)n2)cc1 (stereo partly drawn)
IC50 [3]: 425 nM | bioavailability [25]: 3% | clearance [26]: 115 mL/min/kg | Vd [27]: 3 L/kg | half-life [28]: 78 min

O=C(CCN1CCC(c2cc[nH]n2)CC1)N1CCC[C@H]1c1nc2cc(Cl)c(Cl)cc2[nH]1
IC50 [3]: 290 nM

CC(C)(CCCC(=O)N1CCC[C@H]1c1nc2cc(Cl)c(Cl)cc2[nH]1)N1CCC(c2nc(-c3ccccn3)no2)CC1
IC50 [2]: 19 nM | IC50 [3]: 113 nM | bioavailability [25]: 3% | clearance [26]: 60 mL/min/kg | Vd [27]: 12 L/kg | half-life [28]: 186 min

O=C(CCN1CCC(c2nc(-c3cnccn3)no2)CC1)N1CCC[C@H]1c1nc2cc(Cl)c(Cl)cc2[nH]1
IC50 [3]: 435 nM

O=C(CCN1CCC(c2cnccn2)CC1)N1CCC[C@H]1c1nc2cc(Cl)c(Cl)cc2[nH]1
IC50 [3]: 8000 nM

O=C(CCN1CCC(c2nc(-c3ncccn3)no2)CC1)N1CCC[C@H]1c1nc2cc(Cl)c(Cl)cc2[nH]1
IC50 [3]: 745 nM
